# Measured values taken from patent publication US8329904B2, “Azacyclic derivatives” (Hoffmann-La Roche Inc., priority 2009, dated 2012).
# Biological target: T1, human HSL (Homo sapiens, UniProt Q05469)
# T1 construct: overlapping PCR to generate a full length human HSL ORF with a 3′-His6 tag; His6 (C); made in house; host or cells: High 5 insect cells (baculovirus, pFast-BAC)
# T1 sequence (Q05469 1-1076): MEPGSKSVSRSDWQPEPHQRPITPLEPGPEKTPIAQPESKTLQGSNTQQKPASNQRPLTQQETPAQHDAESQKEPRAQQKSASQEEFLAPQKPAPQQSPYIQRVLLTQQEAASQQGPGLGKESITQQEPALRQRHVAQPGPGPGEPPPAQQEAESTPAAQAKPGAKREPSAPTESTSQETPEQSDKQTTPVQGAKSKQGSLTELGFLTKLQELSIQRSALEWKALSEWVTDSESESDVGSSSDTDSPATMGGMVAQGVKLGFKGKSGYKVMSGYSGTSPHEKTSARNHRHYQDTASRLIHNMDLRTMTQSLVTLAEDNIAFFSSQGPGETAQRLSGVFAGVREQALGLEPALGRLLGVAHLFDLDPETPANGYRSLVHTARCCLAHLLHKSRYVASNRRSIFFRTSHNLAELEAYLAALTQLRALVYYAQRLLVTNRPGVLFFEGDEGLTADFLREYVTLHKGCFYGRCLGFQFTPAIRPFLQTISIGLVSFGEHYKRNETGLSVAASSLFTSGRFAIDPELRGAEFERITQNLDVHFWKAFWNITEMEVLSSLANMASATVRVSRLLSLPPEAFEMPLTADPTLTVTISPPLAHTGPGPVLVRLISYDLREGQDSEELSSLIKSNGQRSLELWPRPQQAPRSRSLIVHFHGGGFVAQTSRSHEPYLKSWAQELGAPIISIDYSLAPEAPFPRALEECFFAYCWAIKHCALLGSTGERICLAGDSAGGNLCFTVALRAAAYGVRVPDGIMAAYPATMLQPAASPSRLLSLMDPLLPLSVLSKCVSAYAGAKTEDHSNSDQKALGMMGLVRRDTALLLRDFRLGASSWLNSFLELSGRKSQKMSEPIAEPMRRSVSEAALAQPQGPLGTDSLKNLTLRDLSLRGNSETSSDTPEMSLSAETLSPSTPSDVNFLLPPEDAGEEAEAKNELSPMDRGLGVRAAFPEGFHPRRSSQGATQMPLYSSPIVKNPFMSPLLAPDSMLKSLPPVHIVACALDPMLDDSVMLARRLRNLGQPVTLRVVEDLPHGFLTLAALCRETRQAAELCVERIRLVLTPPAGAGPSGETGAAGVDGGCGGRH
# Assay: Human Hormone-Sensitive Lipase (HSL) Enzyme Inhibition Assay
# Type: biochemical
# Conditions: colorimetric assay, 2,3-dimercapto-1-propanol tributyrate (DMPT) substrate, 37° C. for 20 minutes, absorbance at 405 nm; read-out: HSL hum IC50
# Method in brief: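 Colorimetric thioester hydrolysis: compounds in DMSO series mixed with DMPT (1.5 mM) in MOPS pH 7.2 with BSA, then baculovirus-expressed His6-tagged full-length human HSL added, 37° C, 20 min. DTNB plus detergents added, 15 min room temperature, absorbance at 405 nm.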
row,IC50,Structure (SMILES)
1,90 nM,"N#CCc1ccc(N2CCC3(CCN(S(=O)(=O)c4ccccc4Cl)CC3)C2=O)cc1 [Example 135, {4-[8-(2-Chloro-benzenesulfonyl)-1-oxo-2,8-diaza-spiro[4.5]dec-2-yl]-phenyl}-acetonitrile]"
2,250 nM,"O=C(CC1CCC1)N1CCC2(CC1)CCN(c1ccc(OC(F)(F)F)cc1)C2=O [Example 216, 8-(2-Cyclobutyl-acetyl)-2-(4-trifluoromethoxy-phenyl)-2,8-diaza-spiro[4.5]decan-1-one]"
3,140 nM,"CCN(C(=O)N1CCC2(CC1)CCN(c1ccc(OC(F)(F)F)cc1)C2=O)C1CCCCC1 [Example 305, 1-Oxo-2-(4-trifluoromethoxy-phenyl)-2,8-diaza-spiro[4.5]decane-8-carboxylic acid cyclohexyl-ethyl-amide]"
4,80 nM,"O=C1N(c2ccc(OC(F)(F)F)cc2)CCC12CCN(S(=O)(=O)c1cccnc1NC1CC1)CC2 [Example 191, 8-(2-Cyclopropylamino-pyridine-3-sulfonyl)-2-(4-trifluoromethoxy-phenyl)-2,8-diaza-spiro[4.5]decan-1-one]"
5,210 nM,"O=C1N(c2cc(C(F)(F)F)ccc2Cl)CCC12CCN(S(=O)(=O)c1ccccc1Cl)CC2 [Example 154, 8-(2-Chloro-benzenesulfonyl)-2-(2-chloro-5-trifluoromethyl-phenyl)-2,8-diaza-spiro[4.5]decan-1-one]"
6,140 nM,"CCN(CCOC)C(=O)N1CCC2(CC1)CCN(c1ccc(OC(F)(F)F)cc1)C2=O [Example 274, 1-Oxo-2-(4-trifluoromethoxy-phenyl)-2,8-diaza-spiro[4.5]decane-8-carboxylic acid ethyl-(2-methoxy-ethyl)-amide]"
7,60 nM,"CC(C)(C)CC(=O)N1CCC2(CC1)CCN(c1ccc(OC(F)(F)F)cc1)C2=O [Example 7, 8-(3,3-Dimethyl-butyryl)-2-(4-trifluoromethoxy-phenyl)-2,8-diaza-spiro[4.5]decan-1-one]"
8,40 nM,"CC(Oc1ccc(N2CCC3(CCN(S(=O)(=O)c4ccccc4C(F)(F)F)CC3)C2=O)cc1)C(F)(F)F (stereo not drawn) [Example 100, 8-(2-Trifluoromethyl-benzenesulfonyl)-2-[4-(2,2,2-trifluoro-1-methyl-ethoxy)-phenyl]-2,8-diaza-spiro[4.5]decan-1-one]"
9,60 nM,"O=C1N(CCc2ccc(F)cc2)CCC12CCN(S(=O)(=O)c1ccccc1Cl)CC2 [Example 239, 8-(2-Chloro-benzenesulfonyl)-2-[2-(4-fluoro-phenyl)-ethyl]-2,8-diaza-spiro[4.5]decan-1-one]"
10,150 nM,"COC(=O)c1cccc(C)c1S(=O)(=O)N1CCC2(CCN(c3ccc(OC(F)(F)F)cc3)C2=O)CC1 [Example 234, 3-Methyl-2-[1-oxo-2-(4-trifluoromethoxy-phenyl)-2,8-diaza-spiro[4.5]decane-8-sulfonyl]-benzoic acid methyl ester]"
11,20 nM,"COc1ncccc1S(=O)(=O)N1CCC2(CCN(c3ccc(OC(F)(F)F)cc3)C2=O)CC1 [Example 194, 8-(2-Methoxy-pyridine-3-sulfonyl)-2-(4-trifluoromethoxy-phenyl)-2,8-diaza-spiro[4.5]decan-1-one]"
12,250 nM,"CC(Oc1ccc(N2CCC3(CCN(C(=O)CC(C)(C)C)CC3)C2=O)cc1)C(F)(F)F (stereo not drawn) [Example 123, 8-(3,3-Dimethyl-butyryl)-2-[4-(2,2,2-trifluoro-1-methyl-ethoxy)-phenyl]-2,8-diaza-spiro[4.5]decan-1-one]"
13,50 nM,"COC/C=C/c1ccc(N2CCC3(CCN(S(=O)(=O)c4ccccc4OC(F)(F)F)CC3)C2=O)cc1 [Example 144, 2-[4-((E)-3-Methoxy-propenyl)-phenyl]-8-(2-trifluoromethoxy-benzenesulfonyl)-2,8-diaza-spiro[4.5]decan-1-one]"
14,640 nM,"CC(C)(C)CC(=O)N1CCC2(CC1)CCN(c1ccc(C(O)C(F)F)cc1)C2=O (stereo not drawn) [Example 178, 2-(4-(2,2-difluoro-1-hydroxyethyl)phenyl)-8-(3,3-dimethylbutanoyl)-2,8-diazaspiro[4.5]decan-1-one]"
15,130 nM,"CN(CCc1ccccc1)C(=O)N1CCC2(CC1)CCN(c1ccc(OC(F)(F)F)cc1)C2=O [Example 282, 1-Oxo-2-(4-trifluoromethoxy-phenyl)-2,8-diaza-spiro[4.5]decane-8-carboxylic acid methyl-phenethyl-amide]"
16,200 nM,"CN(CCO)S(=O)(=O)N1CCC2(CCN(c3ccc(OC(F)(F)F)cc3)C2=O)CC1 [Example 292, 1-Oxo-2-(4-trifluoromethoxy-phenyl)-2,8-diaza-spiro[4.5]decane-8-sulfonic acid (2-hydroxy-ethyl)-methyl-amide]"
17,160 nM,"CN(CCc1ccccn1)S(=O)(=O)N1CCC2(CCN(c3ccc(OC(F)(F)F)cc3)C2=O)CC1 [Example 298, 1-Oxo-2-(4-trifluoromethoxy-phenyl)-2,8-diaza-spiro[4.5]decane-8-sulfonic acid methyl-(2-pyridin-2-yl-ethyl)-amide]"
18,40 nM,"CC(C)(C)CS(=O)(=O)N1CCC2(CCN(c3ccc(OC(F)(F)F)cc3)C2=O)CC1 [Example 19, 8-(2,2-Dimethyl-propane-1-sulfonyl)-2-(4-trifluoromethoxy-phenyl)-2,8-diaza-spiro[4.5]decan-1-one]"
19,40 nM,"Cn1nccc1S(=O)(=O)N1CCC2(CCN(c3ccc(OC(F)(F)F)cc3)C2=O)CC1 [Example 183, 8-(2-Methyl-2H-pyrazole-3-sulfonyl)-2-(4-trifluoromethoxy-phenyl)-2,8-diaza-spiro[4.5]decan-1-one]"
20,610 nM,"O=C(N1CCOCC1)N1CCC2(CC1)CCN(c1ccc(OC(F)(F)F)cc1)C2=O [Example 257, 8-(Morpholine-4-carbonyl)-2-(4-trifluoromethoxy-phenyl)-2,8-diaza-spiro[4,5]decan-1-one]"
21,220 nM,"CC(C)(C)CC(=O)N1CCC2(CC1)CCN(c1ccc(C(O)C(F)(F)F)cc1)C2=O (stereo not drawn) [Example 165, 8-(3,3-Dimethyl-butyryl)-2-[4-(2,2,2-trifluoro-1-hydroxy-ethyl)-phenyl]-2,8-diaza-spiro[4.5]decan-1-one]"
22,60 nM,"O=C1N(c2ccc(CCC3CC3)cc2)CCC12CCN(S(=O)(=O)c1ccccc1OC(F)(F)F)CC2 [Example 147, 2-[4-(2-Cyclopropyl-ethyl)-phenyl]-8-(2-trifluoromethoxy-benzenesulfonyl)-2,8-diaza-spiro[4.5]decan-1-one]"
23,40 nM,"CS(=O)(=O)Oc1ccc(N2CCC3(CCN(S(=O)(=O)c4ccc(F)cc4C(F)(F)F)CC3)C2=O)cc1 [Example 83, Methanesulfonic acid 4-[8-(4-fluoro-2-trifluoromethyl-benzenesulfonyl)-1-oxo-2,8-diaza-spiro[4.5]dec-2-yl]-phenyl ester]"
24,40 nM,"O=C1N(c2ccc(C(F)(F)F)cc2)CCC12CCN(S(=O)(=O)c1ccccc1Cl)CC2 [Example 179, 8-(2-Chloro-benzenesulfonyl)-2-(4-trifluoromethyl-phenyl)-2,8-diaza-spiro[4.5]decan-1-one]"
25,40 nM,"CC(C)(Oc1ccc(N2CCC3(CCN(S(=O)(=O)c4ccccc4)CC3)C2=O)cc1)C(F)(F)F [Example 5, 8-Benzenesulfonyl-2-[4-(2,2,2-trifluoro-1,1-dimethyl-ethoxy)-phenyl]-2,8-diaza-spiro[4.5]decan-1-one]"
26,210 nM,"CC(C)CS(=O)(=O)N1CCC2(CCN(c3ccc(OCC(F)(F)F)cc3)C2=O)CC1 [Example 63, 8-(2-Methyl-propane-1-sulfonyl)-2-[4-(2,2,2-trifluoro-ethoxy)-phenyl]-2,8-diaza-spiro[4.5]decan-1-one]"
27,26000 nM,"O=C1N(c2cccnc2)CCC12CCN(S(=O)(=O)c1ccccc1)CC2 [Example 12, 8-Benzenesulfonyl-2-pyridin-3-yl-2,8-diaza-spiro[4.5]decan-1-one]"
